Source: patent publication US20020137929A1, “1 - (3-heterocyclylphenyl) isothiourea, -isourea, -guanidine and -amidine herbicidal agents” (Intellectual Property Department, BASF Aktiengesellschaft, priority 1998, published 2002)

What was measured:
CYPIR (Rice Flatsedge) = test: Preemergence weed control under flooded paddy conditions; format: in vivo, Cyperus iria; conditions: rated 3-4 weeks after treatment
Outline: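 Flooded-pot preemergence screen with silt loam and seeds in the upper 0.5 cm. Dose about 0.0313 to 0.500 kg/ha, delivered into flood water; visual 0-9 score after 3 to 4 weeks.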

[1] = system: GLXMAW (Soybean, Williams); test: Postemergence herbicidal evaluation; format: in vivo, Glycine max, (L.) Merr. cv Williams; conditions: for herbicidal rating GLXMAW: postemergence
Outline: (§1)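 Visual 0-9 injury score (stand, vigor, malformation, size, chlorosis, appearance vs untreated) taken four to five weeks post-spray, averaged across repeat tests. Test plants about two weeks old; foliar spray of acetone/water (1:1) with 0.5% surfactant delivering ~0.0156-0.500 kg active/ha.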

GALAP (Galium) = test: Preemergence herbicidal evaluation; format: in vivo, Galium aparine; conditions: rated 4-5 weeks after treatment
Outline: (§2)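 Greenhouse preemergence test: seed-soil mix sown on ~1 inch soil; aqueous acetone spray at equivalent of ~0.0156–0.500 kg/ha; greenhouse-held and watered; scored 0–9 visually at 4–5 weeks.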

ZEAMX (Corn, Field) = test: Postemergence herbicidal evaluation; format: in vivo, Zea mays; conditions: for herbicidal rating ZEAMX: postemergence
Outline: as §1

CYPSE (Flatsedge) = test: Postemergence weed control under flooded paddy conditions; format: in vivo, Cyperus serotinus; conditions: postemergence weeds, rated 3 to 4 weeks after treatment
Outline: (§3)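 With weeds 3 to 5 cm tall and rice at the 1.5 to 2.5 leaf stage, containers were flooded and water held 1.5 to 3 cm above soil. Compounds in 50/50 v/v aqueous/acetone went into the flood water at about 0.0313 to 0.500 kg/ha a.i. Effects were visually rated 0–9 against controls after three to four weeks in the greenhouse.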

[2] = system: TRZAWR (Wheat, Winter, cv Riband); test: Postemergence herbicidal evaluation; format: in vivo, Triticum aestivum; conditions: for herbicidal rating TRZAWR: postemergence
Outline: as §1

ORYSAT (Rice, Tebonnet) = test: Postemergence herbicidal evaluation; format: in vivo, Oryza sativa, (L.) Tebonnet; conditions: for herbicidal rating ORYSAT: postemergence
Outline: as §1

[3] = system: ECHORC (Watergrass (Calif.)); test: Postemergence weed control under flooded paddy conditions; format: in vivo, Echinochloa oryzoides; conditions: postemergence weeds, rated 3 to 4 weeks after treatment
Outline: as §3

[4] = system: SAGPY (Arrowhead (Pygmaea)); test: as above; format: in vivo, Sagittaria pygmaea; conditions: postemergence weeds, rated 3 to 4 weeks after treatment
Outline: as §3

AMBEL (Ragweed, Common) = test: Preemergence herbicidal evaluation; format: in vivo, Ambrosia artemisifolia; conditions: rated 4-5 weeks after treatment
Outline: as §2

SETVI (Foxtail, Green) [5] = test: Postemergence herbicidal evaluation; format: in vivo, Setaria viridis; conditions: for herbicidal rating SETVI: postemergence
Outline: as §1

SETVI (Foxtail, Green) [6] = test: Preemergence herbicidal evaluation; format: in vivo, Setaria viridis; conditions: rated 4-5 weeks after treatment
Outline: as §2

ABUTH (Velvetleaf) = test: Postemergence herbicidal evaluation; format: in vivo, Abutilon theophrasti; conditions: for herbicidal rating ABUTH: postemergence
Outline: as §1

[7] = system: CHEAL (Lambsquarters, Common); test: Postemergence herbicidal evaluation; format: in vivo, Chenopodium album; conditions: for herbicidal rating CHEAL: postemergence
Outline: as §1

Cn1c(C(F)(F)F)cc(=O)n(-c2cc(N=C3SCC(=O)N3CC(=O)OCC#N)c(Cl)cc2F)c1=O [Compound 109, 2-{{2-Chloro-5-[3,6-dihydro-3-methyl-2,6-dioxo-4-(trifluoromethyl)-1(2H)-pyrimidinyl]-4-fluorophenyl}imino}-4-oxo-3-thiazolidineacetic acid, ester with glycolonitrile]
0.0: Herbicidal rating CYPSE (CYPSE (Flatsedge); Rate 0.0313 kg/ha) | Herbicidal rating CYPSE (CYPSE (Flatsedge); Rate 0.0625 kg/ha) | Herbicidal rating SAGPY ([4]; Rate 0.0313 kg/ha) | Herbicidal rating SAGPY ([4]; Rate 0.0625 kg/ha) | Herbicidal rating SAGPY ([4]; Rate 0.1250 kg/ha) | Herbicidal rating SAGPY ([4]; Rate 0.2500 kg/ha)
5.0: CYPIR herbicidal effect rating (CYPIR (Rice Flatsedge); 0.0313 kg/ha) | herbicidal rating ORYSAT (ORYSAT (Rice, Tebonnet); rate 0.0630 kg/ha)
7.0: CYPIR herbicidal effect rating (CYPIR (Rice Flatsedge); 0.0625 kg/ha) | herbicidal rating GLXMAW ([1]; rate 0.0158 kg/ha) | herbicidal rating ZEAMX (ZEAMX (Corn, Field); rate 0.0630 kg/ha) | Herbicidal rating CYPSE (CYPSE (Flatsedge); Rate 0.2500 kg/ha) | Herbicidal rating ECHORC ([3]; Rate 0.1250 kg/ha) | herbicidal rating SETVI (SETVI (Foxtail, Green) [5]; rate 0.0315 kg/ha)
6.0: herbicidal rating SETVI (SETVI (Foxtail, Green) [5]; rate 0.0158 kg/ha) | Preemergence herbicidal rating SETVI (SETVI (Foxtail, Green) [6]; rate 0.0313 kg/ha)
3.0: Preemergence herbicidal rating GALAP (GALAP (Galium); rate 0.0156 kg/ha) | Preemergence herbicidal rating GALAP (GALAP (Galium); rate 0.0313 kg/ha) | Preemergence herbicidal rating GALAP (GALAP (Galium); rate 0.0625 kg/ha) | herbicidal rating TRZAWR ([2]; rate 0.0158 kg/ha) | herbicidal rating ORYSAT (ORYSAT (Rice, Tebonnet); rate 0.0158 kg/ha) | Preemergence herbicidal rating AMBEL (AMBEL (Ragweed, Common); rate 0.0156 kg/ha) | Preemergence herbicidal rating AMBEL (AMBEL (Ragweed, Common); rate 0.0313 kg/ha)
8.0: herbicidal rating GLXMAW ([1]; rate 0.0315 kg/ha) | herbicidal rating GLXMAW ([1]; rate 0.0630 kg/ha) | Preemergence herbicidal rating AMBEL (AMBEL (Ragweed, Common); rate 0.0625 kg/ha)
4.0: Preemergence herbicidal rating GALAP (GALAP (Galium); rate 0.1250 kg/ha) | Preemergence herbicidal rating GALAP (GALAP (Galium); rate 0.2500 kg/ha) | herbicidal rating TRZAWR ([2]; rate 0.0315 kg/ha)
6.5: herbicidal rating ZEAMX (ZEAMX (Corn, Field); rate 0.0158 kg/ha) | herbicidal rating ZEAMX (ZEAMX (Corn, Field); rate 0.0315 kg/ha)
4.5: herbicidal rating TRZAWR ([2]; rate 0.0630 kg/ha) | herbicidal rating ORYSAT (ORYSAT (Rice, Tebonnet); rate 0.0315 kg/ha)
9.0: CYPIR herbicidal effect rating (CYPIR (Rice Flatsedge); 0.1250 kg/ha) | CYPIR herbicidal effect rating (CYPIR (Rice Flatsedge); 0.2500 kg/ha) | Herbicidal rating ECHORC ([3]; Rate 0.2500 kg/ha) | Preemergence herbicidal rating AMBEL (AMBEL (Ragweed, Common); rate 0.1250 kg/ha) | Preemergence herbicidal rating AMBEL (AMBEL (Ragweed, Common); rate 0.2500 kg/ha) | Preemergence herbicidal rating AMBEL (AMBEL (Ragweed, Common); rate 0.5000 kg/ha) | herbicidal rating SETVI (SETVI (Foxtail, Green) [5]; rate 0.0630 kg/ha) | Preemergence herbicidal rating SETVI (SETVI (Foxtail, Green) [6]; rate 0.0625 kg/ha) | Preemergence herbicidal rating SETVI (SETVI (Foxtail, Green) [6]; rate 0.1250 kg/ha) | Preemergence herbicidal rating SETVI (SETVI (Foxtail, Green) [6]; rate 0.2500 kg/ha) | Preemergence herbicidal rating SETVI (SETVI (Foxtail, Green) [6]; rate 0.5000 kg/ha) | herbicidal rating ABUTH (ABUTH (Velvetleaf); rate 0.0158 kg/ha) | herbicidal rating ABUTH (ABUTH (Velvetleaf); rate 0.0315 kg/ha) | herbicidal rating ABUTH (ABUTH (Velvetleaf); rate 0.0630 kg/ha) | herbicidal rating CHEAL ([7]; rate 0.0158 kg/ha) | herbicidal rating CHEAL ([7]; rate 0.0315 kg/ha) | herbicidal rating CHEAL ([7]; rate 0.0630 kg/ha)
5.5: Preemergence herbicidal rating SETVI (SETVI (Foxtail, Green) [6]; rate 0.0156 kg/ha)
2.0: Herbicidal rating ECHORC ([3]; Rate 0.0313 kg/ha) | Herbicidal rating ECHORC ([3]; Rate 0.0625 kg/ha)

C=CCN1C(=O)C(CC(=O)O)SC1=Nc1cc(-n2c(=O)cc(C(F)(F)F)n(C)c2=O)c(F)cc1Cl (stereo not drawn) [Compound 62, 3-Allyl-2-{{2-chloro-5-[3,6-dihydro-3-methyl-2,6-dioxo-4-(trifluoromethyl)-1(2H)-pyrimidinyl]-4-fluorophenyl}imino}-4-oxo-5-thiazolidineacetic acid]
7.0: Postemergence herbicidal rating TRZAWR ([2]; Rate 0.0630 kg/ha) | Postemergence herbicidal rating ORYSAT (ORYSAT (Rice, Tebonnet); Rate 0.0630 kg/ha) | Preemergence herbicidal rating AMBEL (AMBEL (Ragweed, Common); rate 0.0625 kg/ha) | Preemergence herbicidal rating AMBEL (AMBEL (Ragweed, Common); rate 0.2500 kg/ha)
2.0: CYPIR herbicidal effect rating (CYPIR (Rice Flatsedge); 0.0625 kg/ha) | Herbicidal rating ECHORC ([3]; Rate 0.1250 kg/ha) | Preemergence herbicidal rating AMBEL (AMBEL (Ragweed, Common); rate 0.0156 kg/ha)
9.0: CYPIR herbicidal effect rating (CYPIR (Rice Flatsedge); 0.1250 kg/ha) | CYPIR herbicidal effect rating (CYPIR (Rice Flatsedge); 0.2500 kg/ha) | Preemergence herbicidal rating GALAP (GALAP (Galium); rate 0.2500 kg/ha) | Preemergence herbicidal rating AMBEL (AMBEL (Ragweed, Common); rate 0.1250 kg/ha) | Postemergence herbicidal rating SETVI (SETVI (Foxtail, Green) [5]; Rate 0.0158 kg/ha) | Postemergence herbicidal rating SETVI (SETVI (Foxtail, Green) [5]; Rate 0.0315 kg/ha) | Preemergence herbicidal rating SETVI (SETVI (Foxtail, Green) [6]; rate 0.1250 kg/ha) | Preemergence herbicidal rating SETVI (SETVI (Foxtail, Green) [6]; rate 0.2500 kg/ha) | Postemergence herbicidal rating ABUTH (ABUTH (Velvetleaf); Rate 0.0158 kg/ha) | Postemergence herbicidal rating ABUTH (ABUTH (Velvetleaf); Rate 0.0315 kg/ha) | Postemergence herbicidal rating ABUTH (ABUTH (Velvetleaf); Rate 0.0630 kg/ha) | Postemergence herbicidal rating CHEAL ([7]; Rate 0.0158 kg/ha) | Postemergence herbicidal rating CHEAL ([7]; Rate 0.0315 kg/ha) | Postemergence herbicidal rating CHEAL ([7]; Rate 0.0630 kg/ha)
4.5: Postemergence herbicidal rating ORYSAT (ORYSAT (Rice, Tebonnet); Rate 0.0158 kg/ha)
6.0: Preemergence herbicidal rating GALAP (GALAP (Galium); rate 0.1250 kg/ha) | Herbicidal rating SAGPY ([4]; Rate 0.2500 kg/ha) | Preemergence herbicidal rating SETVI (SETVI (Foxtail, Green) [6]; rate 0.0625 kg/ha)
8.0: Postemergence herbicidal rating ZEAMX (ZEAMX (Corn, Field); Rate 0.0315 kg/ha) | Postemergence herbicidal rating ZEAMX (ZEAMX (Corn, Field); Rate 0.0630 kg/ha) | Postemergence herbicidal rating SETVI (SETVI (Foxtail, Green) [5]; Rate 0.0630 kg/ha)
8.5: Postemergence herbicidal rating GLXMAW ([1]; Rate 0.0630 kg/ha)
7.5: Postemergence herbicidal rating GLXMAW ([1]; Rate 0.0158 kg/ha) | Postemergence herbicidal rating GLXMAW ([1]; Rate 0.0315 kg/ha) | Postemergence herbicidal rating ZEAMX (ZEAMX (Corn, Field); Rate 0.0158 kg/ha)
3.0: Herbicidal rating SAGPY ([4]; Rate 0.1250 kg/ha)
5.5: Postemergence herbicidal rating TRZAWR ([2]; Rate 0.0315 kg/ha)
0.0: CYPIR herbicidal effect rating (CYPIR (Rice Flatsedge); 0.0313 kg/ha) | Preemergence herbicidal rating GALAP (GALAP (Galium); rate 0.0156 kg/ha) | Preemergence herbicidal rating GALAP (GALAP (Galium); rate 0.0313 kg/ha) | Preemergence herbicidal rating GALAP (GALAP (Galium); rate 0.0625 kg/ha) | Herbicidal rating CYPSE (CYPSE (Flatsedge); Rate 0.0313 kg/ha) | Herbicidal rating CYPSE (CYPSE (Flatsedge); Rate 0.0625 kg/ha) | Herbicidal rating CYPSE (CYPSE (Flatsedge); Rate 0.1250 kg/ha) | Herbicidal rating CYPSE (CYPSE (Flatsedge); Rate 0.2500 kg/ha) | Herbicidal rating ECHORC ([3]; Rate 0.0313 kg/ha) | Herbicidal rating ECHORC ([3]; Rate 0.0625 kg/ha) | Herbicidal rating SAGPY ([4]; Rate 0.0313 kg/ha) | Herbicidal rating SAGPY ([4]; Rate 0.0625 kg/ha) | Preemergence herbicidal rating SETVI (SETVI (Foxtail, Green) [6]; rate 0.0156 kg/ha) | Preemergence herbicidal rating SETVI (SETVI (Foxtail, Green) [6]; rate 0.0313 kg/ha)
5.0: Postemergence herbicidal rating TRZAWR ([2]; Rate 0.0158 kg/ha) | Postemergence herbicidal rating ORYSAT (ORYSAT (Rice, Tebonnet); Rate 0.0315 kg/ha) | Herbicidal rating ECHORC ([3]; Rate 0.2500 kg/ha) | Preemergence herbicidal rating AMBEL (AMBEL (Ragweed, Common); rate 0.0313 kg/ha)
